Laboratory results from PMC4291348, “A Continuous Enzyme-Coupled Assay for Triphosphohydrolase Activity of HIV-1 Restriction Factor SAMHD1” (Antimicrobial Agents and Chemotherapy, 2014).
Where “and” joins values, the source holds several entries; their conditions need not be identical. Identical values can stand only once. Entries after “also recorded” stand apart in the source; their conditions may differ. Values belong to the compound of their own block, whether it stands above or below them.

Legend:
SAMHD1 [1] = system: T1, SAMHD1; settings: cited from earlier work; for Hydrolytic activity of SAMHD1 on the compound: in vitro
T1 construct: The catalytic domain of SAMHD1 (residues 115 to 626) was expressed and purified as previously described; made in house

HIV-1 = system: HIV-1; parameters: method as in PMID 24867973, PMID 23744077, PMID 24913159; settings: monocyte-derived macrophages and activated CD4+ T cells; cited from earlier work
[2] = target: T2, SAMHD1 (residues 115 to 626) (Homo sapiens, UniProt Q9Y3Z3); test: Continuous enzyme-coupled (Ppx1 / MDCC-PBP) real-time assay of SAMHD1 triphosphohydrolase activity; format: biochemical; settings: for KA, apparent dissociation constant for activator binding (activator concentration for half-maximal hydrolysis of TTP substrate): TTP substrate 1 mM, activator varied; for Inhibitory effect on steady-state TTP hydrolysis by GTP-activated SAMHD1 (in words): increasing amounts of compound
T2 construct: The catalytic domain of SAMHD1 (residues 115 to 626) was expressed and purified as previously described; made in house
Method: The steady-state kinetics of SAMHD1 were determined by a coupled-enzyme assay using Ppx1 and a fluorescent phosphate biosensor, MDCC-PBP. The reactions were set up in 20-μl volumes in 384-well low-protein-binding microplates (Corning, USA), and the time-dependent fluorescence signal was measured using a Tecan Saffire^2 multiwell plate reader (Männedorf, Switzerland). Solutions containing SAMHD1 (residues 115 to 626), Ppx1, MDCC-PBP, an activator, and an inhibitor (if present) were incubated for 5 min at 25°C before the reaction was initiated by the addition of the substrate. The final concentrations were 100 nM SAMHD1, 10 nM Ppx1, and 40 μM MDCC-PBP. Depending on the experiment, the concentration of the substrate, the activator, or the inhibitor varied while the substrate and/or the activator was held constant at 1 mM and 0.2 mM, respectively. The fluorescence intensity was recorded at 430 nm for excitation and 465 nm for emission wavelengths, with a 7-nm slit width, at 8- to 10-s time intervals over a period of 10 to 30 min. The standard curves were obtained by incubating 40 μM MDCC-PBP with different concentrations of phosphate (Pi) and measuring the fluorescence, as discussed above. The fluorescence response was linear and in the range of 0 to 20 μM Pi.
The steady-state rates were obtained from the time courses of Pi formation by linear regression of the data points in the linear phase of the reaction. Rates were divided by the SAMHD1 concentration and were plotted versus the activator, substrate, or inhibitor concentration. Apparent dissociation constants for the activator (KA) or the substrate binding (KS) and the catalytic constant (kcat) were determined by nonlinear least-squares fitting using either a hyperbolic or a Hill-function equation in the software package GraFit 7.0.3 (Erithacus Software, United Kingdom) ([22]). […] Data from the three different experiments were analyzed by a least-squares fit using the equation for competitive inhibition. The fits for the three data sets yielded invariant values for the inhibition constants (Ki), supporting a competitive mode of inhibition. All measurements were performed in triplicate in the reaction buffer.

SAMHD1 [3] = system: T1, SAMHD1; test: Malachite green endpoint Ppx1-coupled assay of SAMHD1 (compound screening); format: biochemical, human; settings: for SAMHD1 inhibition (TTP hydrolysis after inclusion of test compound): 200 μM compound, 200 μM GTP, 1 mM TTP; for Hydrolysis by GTP-activated SAMHD1: 1 mM compound plus 200 μM GTP, relative to control TTP; for SAMHD1 activation (TTP hydrolysis relative to control GTP): 200 μM compound as activator, 1 mM TTP substrate
Method: The substrates and compounds were obtained from Jena Biosciences (Jena, Germany) or Thermo Fisher Scientific (Massachusetts, USA). The phosphate concentration was determined using the recommended protocol supplied with the PiColorLock gold phosphate detection system from Innova Biosciences (Cambridge, United Kingdom). Time-course assays were conducted in low-protein-binding 96-well black plates (Corning, USA). The absorbance was measured using a Tecan Safire^2 (Männedorf, Switzerland) plate reader at 630 nm in a fixed-wavelength mode. All the assays were prepared as master mixes immediately before use in a reaction buffer containing 20 mM Tris-HCl, 150 mM NaCl, 5 mM MgCl2, and 2 mM TCEP at pH 7.5.
To determine the triphosphohydrolase activity of SAMHD1, 1 mM substrate and 200 μM allosteric activator were incubated with 5 μM SAMHD1 and 500 nM Ppx1. Fixed-volume samples were removed at predetermined time intervals, and activity was stopped by the addition of 0.25 vol of gold mix (PiColorLock gold) through acidification to a pH of approximately 1.0. After 5 min of incubation at 25°C, 0.1 volume of stabilizer solution (PiColorLock gold) was added, and the mixtures were incubated for a further 30 min at 25°C. The final absorbance was measured as 630 nm by scanning 10 times and averaging data. Each assay was completed in triplicate. The triplicated readings were averaged and normalized by subtracting the average zero-standard optical density. The averaged optical density reading was then compared to a known standard of monophosphate to calculate the concentration of phosphate released.
To determine whether a compound was both a substrate and an allosteric activator of SAMHD1, only 1 mM of the compound of interest was included in the reaction. To test if a compound was a substrate for activated SAMHD1, 1 mM of the compound plus 200 μM GTP was included.

Ppx1 = target: T3, Ppx1 (Saccharomyces cerevisiae, UniProt P38698); test: Ppx1 triphosphate hydrolysis kinetics and specificity controls; format: biochemical; settings: recombinant Ppx1 0.3 nM, 25°C, MDCC-PBP
T3 construct: StrepII-tag (N); made in house; host or cells: Escherichia coli BL21(DE3)
Method: Sample controls were used to check for potential Ppx1 activity on the compounds and the reagents. In these assays, the 200 μM compound was incubated in a reaction buffer at 25°C for 30 s with 500 nM Ppx1, either with or without 200 μM triphosphate. The Ppx1 activity was determined by measuring phosphate release with malachite green detection, as described for the coupled assay above.
The initial control experiments were undertaken to assess the suitability of Ppx1 as a coupled enzyme for the assay. The Km for Ppx1 hydrolysis of a polyphosphate ranged from 0.004 to 140 μM ([23]) for P250 to P3 substrates, with kcat values between 180 and 1,500 s^−1 at 37°C, depending on the preparation ([23][–][25]). […] Over the triphosphate substrate concentration range employed in the assays, this rate is substantially higher than that of SAMHD1 dNTP hydrolysis (kcat, ∼1.3 s^−1) and so is suitable as the coupling enzyme in an assay. […]
FIG 2 Kinetics and specificity of Ppx1 hydrolysis. (A) Steady-state kinetics of Ppx1-catalyzed triphosphate cleavage to Pi and PPi were measured using 40 μM MDCC-PBP, 0.3 nM Ppx1, and various concentrations of the triphosphate. The error bars represent the SEM of three independent measurements recorded at each substrate concentration. […] (B) Specificity of Ppx1 hydrolysis was measured using the malachite green endpoint assay. […]

T2 sequence (Q9Y3Z3 115-626): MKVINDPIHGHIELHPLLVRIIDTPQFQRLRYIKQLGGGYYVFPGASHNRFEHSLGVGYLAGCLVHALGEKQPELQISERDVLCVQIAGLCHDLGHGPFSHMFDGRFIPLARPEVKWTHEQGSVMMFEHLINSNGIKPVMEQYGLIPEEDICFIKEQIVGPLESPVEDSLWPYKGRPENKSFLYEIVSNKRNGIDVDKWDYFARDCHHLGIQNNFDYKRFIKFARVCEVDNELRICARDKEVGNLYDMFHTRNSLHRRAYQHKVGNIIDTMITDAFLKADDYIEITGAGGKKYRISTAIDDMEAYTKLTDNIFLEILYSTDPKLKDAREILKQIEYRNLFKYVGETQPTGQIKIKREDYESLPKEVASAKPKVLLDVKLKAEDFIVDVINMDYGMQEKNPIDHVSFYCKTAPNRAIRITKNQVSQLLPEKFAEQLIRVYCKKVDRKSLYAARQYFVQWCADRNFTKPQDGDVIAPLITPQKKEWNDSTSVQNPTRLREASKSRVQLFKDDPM
T3 sequence (P38698 whole entry): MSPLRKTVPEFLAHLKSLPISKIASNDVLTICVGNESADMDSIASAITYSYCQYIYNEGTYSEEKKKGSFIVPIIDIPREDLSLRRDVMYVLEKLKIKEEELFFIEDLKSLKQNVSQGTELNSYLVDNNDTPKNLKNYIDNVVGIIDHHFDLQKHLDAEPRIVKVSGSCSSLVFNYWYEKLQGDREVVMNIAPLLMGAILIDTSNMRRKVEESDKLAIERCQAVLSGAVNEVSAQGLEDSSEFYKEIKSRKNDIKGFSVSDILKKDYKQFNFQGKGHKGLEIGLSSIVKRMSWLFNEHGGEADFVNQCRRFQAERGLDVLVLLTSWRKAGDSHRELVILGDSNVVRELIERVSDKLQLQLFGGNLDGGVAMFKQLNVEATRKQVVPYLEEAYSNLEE

SMILES: Nc1ccn([C@H]2CS[C@@H](COP(=O)(O)OP(=O)(O)OP(=O)(O)O)O2)c(=O)n1 [3TC-TP, 2′,3′-dideoxy-3′-thiacytidine triphosphate]
Hydrolytic activity of SAMHD1 on the compound (SAMHD1 [1]): little or no hydrolytic activity

SMILES: Cc1cn([C@H]2C[C@H](N=[N+]=[N-])[C@@H](CO[P@](=O)(O)O[P@](=O)(O)OP(=O)(O)O)O2)c(=O)[nH]c1=O [AZT-TP, azidothymidine triphosphate]
Hydrolytic activity of SAMHD1 on the compound (SAMHD1 [1]): little or no hydrolytic activity

SMILES: Cc1cn([C@H]2C[C@H](N=[N+]=[N-])[C@@H](CO)O2)c(=O)[nH]c1=O [AZT]
Change in efficacy against HIV-1 infection on downregulation of SAMHD1 (HIV-1): large decrease in the efficacy

EC50 [2]: 15.6 ± 2.2 µM
SMILES: Nc1nc2c(ncn2COCCOP(=O)(O)OP(=O)(O)OP(=O)(O)O)c(=O)[nH]1 [Acyclovir-TP, acyclovir triphosphate]
SAMHD1 inhibition (TTP hydrolysis after inclusion of test compound) (SAMHD1 [3]): not significantly inhibited
Hydrolysis by GTP-activated SAMHD1 (SAMHD1 [3]): refractory to hydrolysis; also recorded: not a substrate

nS, Hill coefficient for substrate binding ([2]; GTP activator 0.2 mM): 2.8 ± 0.1
KS, apparent dissociation constant for substrate binding ([2]; GTP activator 0.2 mM, 25°C): 67.6 ± 8.9 µM
SMILES: Nc1nc(Cl)nc2c1ncn2[C@@H]1O[C@H](COP(=O)(O)OP(=O)(O)OP(=O)(O)O)[C@@H](O)[C@@H]1F [Clofarabine-TP, clofarabine triphosphate]
SAMHD1 activation (TTP hydrolysis relative to control GTP) (SAMHD1 [3]): no activation
SAMHD1 inhibition (TTP hydrolysis after inclusion of test compound) (SAMHD1 [3]): diminished only slightly
Hydrolysis by GTP-activated SAMHD1 (SAMHD1 [3]): hydrolyzed at a rate comparable to that of the control TTP; also recorded: hydrolyzed by SAMHD1 at a rate comparable to that of natural dNTP substrates

KA, apparent dissociation constant for activator binding (activator concentration for half-maximal hydrolysis of TTP substrate) ([2]; 25°C): 32.0 ± 4.2 µM
SMILES: Nc1nc2c(ncn2[C@@H]2O[C@H](COP(=O)(O)OP(=O)(O)OP(=O)(O)O)[C@@H](O)[C@H]2O)c(=O)[nH]1 [GTP]
Activation of SAMHD1 (SAMHD1 [1]): activates SAMHD1 as effectively as dGTP

Ki, inhibition constant ([2]; GTP activator, TTP substrate (1, 0.3, 0.1 mM), competitive inhibition model): No inhibition
KA, apparent dissociation constant for activator binding (activator concentration for half-maximal hydrolysis of TTP substrate) ([2]; 25°C): No activation
KA, apparent dissociation constant for activator binding (activator concentration for half-maximal hydrolysis of TTP substrate) ([2]; 25°C, listed as ganciclovir-TP): unable to activate SAMHD1
Inhibitory effect on steady-state TTP hydrolysis by GTP-activated SAMHD1 (in words) ([2]; GTP activator, TTP substrate): no effect
SMILES: Nc1nc2c(ncn2COC(CO)COP(=O)(O)OP(=O)(O)OP(=O)(O)O)c(=O)[nH]1 (stereo not drawn) [Ganciclovir-TP, ganciclovir triphosphate]
SAMHD1 activation (TTP hydrolysis relative to control GTP) (SAMHD1 [3]): no activation
SAMHD1 inhibition (TTP hydrolysis after inclusion of test compound) (SAMHD1 [3]): not significantly inhibited
Hydrolysis by GTP-activated SAMHD1 (SAMHD1 [3]): refractory to hydrolysis

nS, Hill coefficient for substrate binding ([2]; Acyclovir-TP as activator, TTP substrate): 3.0 ± 0.1
KS, apparent dissociation constant for substrate binding ([2]; Acyclovir-TP as activator, TTP substrate, Hill-modified model): 353 ± 16 µM
KS, apparent dissociation constant for substrate binding ([2]; GTP activator 0.2 mM, 25°C): 96.3 ± 1.7 µM
SMILES: Cc1cn([C@H]2C[C@H](O)[C@@H](COP(=O)(O)OP(=O)(O)OP(=O)(O)O)O2)c(=O)[nH]c1=O [TTP]

SMILES: Cc1cn([C@H]2C=C[C@@H](COP(=O)(O)OP(=O)(O)OP(=O)(O)O)O2)c(=O)[nH]c1=O [d4T-TP, 2′,3′-didehydro-2′,3′-dideoxythymidine triphosphate]
Hydrolytic activity of SAMHD1 on the compound (SAMHD1 [1]): little or no hydrolytic activity

Ki ([2]; read-out: Ki, inhibition constant): 1.13 ± 0.07 µM
SMILES: Nc1ncnc2c1ncn2[C@H]1C[C@H](O)[C@@H](COP(=O)(O)NP(=O)(O)OP(=O)(O)O)O1 [dApNHpp]
Inhibitory effect on steady-state TTP hydrolysis by GTP-activated SAMHD1 (in words) ([2]; GTP activator, TTP substrate): potent inhibition; also recorded: strong competitive inhibitor
SAMHD1 activation (TTP hydrolysis relative to control GTP) (SAMHD1 [3]): no activation
SAMHD1 inhibition (TTP hydrolysis after inclusion of test compound) (SAMHD1 [3]): substantial reduction in TTP hydrolysis to near background levels
Hydrolysis by GTP-activated SAMHD1 (SAMHD1 [3]): refractory to hydrolysis

kcat of Ppx1 triphosphate hydrolysis (Ppx1): 338 s⁻¹ and 338 ± 31 s⁻¹
SMILES: O=P(O)(O)OP(=O)(O)OP(=O)(O)O [triphosphate]
